The test system of this assay is sebocytes. As to the kind of experiment: In Vitro sebocyte Lipogenesis Assay (14-C acetate incorporation into lipid). It is filed as cell-based, Human. The text has this: Dermatologic disorders, chronoaging and environmental abuse all have some relationship to sebum production. The present example reports an in vitro analysis of sebum suppression by use of a combination of salicylate ester and retinoid.
Human sebaceous glands were isolated from the nose of a person and cultured using submerged tissue culture techniques (Bajor et al, J. Invest, Dermatol, 102:1994. P. 564). These sebocytes accumulate intracellular lipid droplets characteristic of mature human sebum.
Harvested and passaged sebocytes were added to each well of a 48 well tissue culture plate and incubated at 37°C in the presence of 7.5% CO2 for 14 days. The growth medium was changed three times per week. On the day of experimentation, the growth medium was removed and the sebocytes washed three times with phosphate buffered saline (PBS). Fresh PBS in 0.5 ml amount was added to each well and 10 microliters of active agent speculated to inhibit lipogenesis. Triplicate wells were utilized for each sample. […] The cultures were incubated at 37°C/7.5% CO2 for 30 minutes. Radioactive label was prepared by adding 100 ul of 14-C labelled acetic acid (Amersham, sodium salt, specific activity of 56 mCi/mmol) to 10 mL of 50 mM sodium acetate buffer. Then 50 ul was added to each well containing the sebocytes and active agents. The cultures were returned to the incubator for 4 hours. Thereafter the treatments and label were removed and the sebocytes rinsed three times with fresh PBS. Sebocytes were harvested and 10 microliters removed and set aside for protein assessment. The remaining samples containing the 14-C label were extracted and the label counted using a Beckman scintillation counter. Triplicates were performed for each sample.
For each 48 well tissue culture plate, 16 samples could be analyzed. Of these, 1 sample was reserved for PBS, 1 sample for DMSO, and 1 sample for phenol red leaving 13 remaining samples. When TDS (tridecyl salicylate) was analyzed in the presence of other compounds, an additional set of wells was used for measuring the effects of TDS alone. When multiple 48 well plates were used, TDS was included in each plate.

Where [1] appears, read: combination with tridecyl salicylate, conclusion from Tables VIII-X.

Each structure is given as a SMILES string. Where two headings read alike, the source gives them in different places.

Take `CCCCC/C=C\C/C=C\CCCCCCCC(=O)OC/C=C(C)/C=C/C=C(C)/C=C/C1=C(C)CCCC1(C)C` [Retinyl Linoleate, retinyl linoleate]: the inhibition at 10 µM runs as follows: (Homo sapiens, Table IX, Retinyl Linoleate 10 uM alone, read-out: Retinyl Linoleate % Actual Reduction (SD)) -15%; (Homo sapiens, Table VIII, Retinyl Linoleate 10 uM alone, read-out: Retinyl Linoleate % Actual Reduction (SD)) 13.8%. The inhibition at 50 µM (Homo sapiens, Table IX, Retinyl Linoleate 50 uM alone, read-out: Retinyl Linoleate % Actual Reduction (SD)) is -7.4%. The inhibition at 100 µM by setting is: (Homo sapiens, Table IX, Retinyl Linoleate 100 uM alone, read-out: Retinyl Linoleate % Actual Reduction (SD)) 1.9%; (Homo sapiens, Table VIII, Retinyl Linoleate 100 uM alone, read-out: Retinyl Linoleate % Actual Reduction (SD)) 20.3%. In addition, where the note is “Homo sapiens, Table VIII, Retinyl Linoleate 100 nM alone, read-out: Retinyl Linoleate % Actual Reduction (SD)”, the inhibition at 0.1 µM was 4.4%. Further, the inhibition at 1 µM (Homo sapiens, Table VIII, Retinyl Linoleate 1 uM alone, read-out: Retinyl Linoleate % Actual Reduction (SD)) came out at 6%. Further, under setting [1], the “activity with tridecyl salicylate (synergistic or additive)” value (shortened to “activity with tridecyl salicylate”) is “synergistic activity”.
Regarding `CCCCCCCCCCCCCOC(=O)c1ccccc1O` [TDS, tridecyl salicylate], the inhibition at 50 µM (Homo sapiens, Table IX, 50 uM TDS alone, read-out: Reduction) came to 17.9%. Moreover, the inhibition at 100 µM reads like this: (Homo sapiens, Table IX, 100 uM TDS alone, read-out: Reduction) 30.8%; (Homo sapiens, Table X, 100 uM TDS alone, read-out: Reduction) 38.7%. Further, where the note is “Homo sapiens, Table VIII, 10 uM TDS alone, read-out: Reduction”, the inhibition at 10 µM turned out to be 19.7%.
For the compound `CC1=C(/C=C/C(C)=C/C=C/C(C)=C/CO)C(C)(C)CCC1` [Retinol], where the note is “similar trials with retinol instead of retinyl linoleate, retinol at very low levels”, the “activity with tridecyl salicylate” value is “synergistic”.
Turning to `CCCCCCCCCCCCCCCC(=O)OC/C=C(C)/C=C/C=C(C)/C=C/C1=C(C)CCCC1(C)C` [Retinyl Palmitate, retinyl palmitate, reference compound], where the note is “Homo sapiens, Table X, Retinyl Palmitate 10 uM alone, read-out: Retinyl Palmitate % Actual Reduction (SD)”, the inhibition at 10 µM came out at 12.2%. Under “Homo sapiens, Table X, Retinyl Palmitate 100 uM alone, read-out: Retinyl Palmitate % Actual Reduction (SD)”, the inhibition at 100 µM was determined as 12%. Moreover, the “activity with tridecyl salicylate” value under setting [1] is on record as “only an additive effect”.

These data come from patent publication EP0881896B1, “SKIN TREATMENT WITH SALICYLIC ACID ESTERS AND RETINOIDS” (FD MANAGEMENT, INC., priority 1996, dated 1997).
